Data set [1] in a line: Chemical stability of the compound in phosphate buffer saline assessed as half life at pH 7.3 by HPLC analysis. In kind it is physicochemical. The conditions noted are these: phosphate buffered saline.
The test system of data set [2] is Human immunodeficiency virus 2. Nature of the data set: Antiviral activity against HIV-2 ROD infected in thymidine kinase-deficient human CEM cells assessed as inhibition of virus-induced cytopathic effect incubated for 4 to 5 days by light microscopic analysis. In kind it is functional, organism-based. The conditions noted are these: Human immunodeficiency virus 2, ROD, CCRF-CEM.

The nature of data set [3]: Prodrug conversion in pH 7.3 phosphate buffer assessed as metabolite formation by measuring half life in presence of pig liver esterase by HPLC analysis. In kind it is ADME. As to conditions: isolated protein.
For data set [4], the system named is Human immunodeficiency virus 2. Nature of the data set: Antiviral activity against HIV-2 ROD infected in wild-type human CEM/0 cells assessed as inhibition of virus-induced cytopathic effect incubated for 4 to 5 days by light microscopic analysis. In kind it is functional, organism-based. The conditions noted are these: Human immunodeficiency virus 2, ROD, CCRF-CEM. For orientation: Protection from cytopathic effect is a common read-out in antiviral testing.

Data set [5] in a line: Selectivity index, ratio of CC50 for human CEM cells to EC50 for HIV-2 ROD infected in thymidine kinase-deficient human CEM cells. In kind it is toxicity. The conditions noted are these: read-out: Ratio CC50/EC50.
Data set [6] has as its system Human immunodeficiency virus 1. The data set can be described thus: Antiviral activity against HIV-1 HE infected in wild-type human CEM/0 cells assessed as inhibition of virus-induced cytopathic effect incubated for 4 to 5 days by light microscopic analysis. In kind it is functional, organism-based. The conditions noted are these: Human immunodeficiency virus 1, HE, CCRF-CEM.

The nature of data set [7]: Retention time of the compound by HPLC analysis. In kind it is physicochemical.
Data set [8] is described as follows: Cytotoxicity against human CEM cells assessed as reduction in cell viability incubated for 4 to 5 days by light microscopic analysis. In kind it is toxicity, cell-based. The conditions noted are these: CEM cells (CCRF-CEM), time 4-5 day.
The nature of data set [9]: Prodrug conversion in human CEM/0 cell extract assessed as metabolite formation by measuring half life by HPLC analysis. In kind it is ADME. The conditions noted are these: ccrf-cem.

`CCCCCCCCCCCCP(=O)(OCc1ccc(OC(=O)CCCCCCCCCCC)cc1)OP(=O)(O)OC[C@@H]1C=C[C@H](n2cc(C)c(=O)[nH]c2=O)O1.N` (stereo partly drawn): in data set [1], the half-life was more than 83.3 days. The EC50 in data set [2] was determined as 10 nM; in data set [4], 60 nM; in [6], 130 nM. In addition, the t1/2 in data set [3] came to 0.27 h; in [9] it was 3 h. In addition, the selectivity ratio in [5] turned out to be 4110. For the same molecule, in data set [7], the Retention_time is reported as 20.6 min. In addition, the CC50 in data set [8] came to 41100 nM.

Consider `CCCCCCCCCCCCP(=O)(OCc1ccc(OC(=O)CCCC)cc1)OP(=O)(O)OC[C@@H]1C=C[C@H](n2cc(C)c(=O)[nH]c2=O)O1.N` (stereo partly drawn), for which the half-life in [1] is 29.2 days. Also, the half-maximal effective concentration (EC50) in data set [2] is 760 nM; in [4], 420 nM; in data set [6], 560 nM. Further, the Drug metabolism entry in data set [3] and in [9] was “Metabolite_Notdetected” each time. Moreover, the selectivity ratio in data set [5] worked out at 88. Besides, the Retention_time in data set [7] is given as 16.3 min. The CC50 in data set [8] is 66700 nM.

Take `CCCCCCCCCCCCOP(=O)(OCc1ccc(OC(=O)CCCCCCCCCCC)cc1)OP(=O)(O)OC[C@@H]1C=C[C@H](n2cc(C)c(=O)[nH]c2=O)O1.N` (stereo partly drawn): the half-life in [1] was 15.5 days. The EC50 stood at 48 nM in data set [2], 120 nM in data set [4] and 120 nM in [6]. For the same molecule, the t1/2 was determined as 0.67 h in [3] and 4.5 h in data set [9]. In addition, the selectivity ratio in data set [5] turned out to be 1010. Also, the Retention_time in data set [7] is listed as 20.9 min. Moreover, the CC50 in data set [8] came to 48400 nM.

`CCCCCCCCCCCCCCCCCCP(=O)(OCc1ccc(OC(=O)CCCC)cc1)OP(=O)(O)OC[C@@H]1C=C[C@H](n2cc(C)c(=O)[nH]c2=O)O1.N` (stereo partly drawn): the half-life in [1] was more than 83.3 days. The figures for the EC50 in data set [2], in [4] and in data set [6] were 2 nM, 42 nM and 44 nM, respectively. The t1/2 in data set [3] is 0.25 h; in [9], more than 8 h. The selectivity ratio in [5] is 7290. The Retention_time in [7] is reported as 20 min. Further, the CC50 in data set [8] was 14600 nM.

As to `CCCCCCCCCCCCCCCCCCOP(=O)(OCc1ccc(OC(=O)CCCC)cc1)OP(=O)(O)OC[C@@H]1C=C[C@H](n2cc(C)c(=O)[nH]c2=O)O1.N` (stereo partly drawn), the half-life in data set [1] is 16.9 days. The EC50 in data set [2] came to 16 nM; in [4], 36 nM; in [6] it was 59 nM. Besides, the t1/2 in [3] was 0.18 h; in [9], more than 7 h. For the same molecule, the selectivity ratio in data set [5] worked out at 3170. In addition, the Retention_time in data set [7] is on record as 20.3 min. Also, the CC50 in [8] is 50600 nM.

As for `CCCCCCCCCCCC(=O)Oc1ccc(COP(=O)(OCCCC)OP(=O)(O)OC[C@@H]2C=C[C@H](n3cc(C)c(=O)[nH]c3=O)O2)cc1.N` (stereo partly drawn), the half-life in [1] was 11.6 days. The EC50 came to 750 nM in data set [2], 53 nM in data set [4] and 230 nM in data set [6]. Besides, the Drug metabolism result in data set [3] and in data set [9] was “Metabolite_Notdetected” each time. Besides, the selectivity ratio in data set [5] was 111. Moreover, the Retention_time in [7] was found to be 16.6 min. Also, the cytotoxic concentration (CC50) in [8] was determined as 83100 nM.

`CCCCOP(=O)(OCc1ccc(OC(=O)CCCC)cc1)OP(=O)(O)OC[C@@H]1C=C[C@H](n2cc(C)c(=O)[nH]c2=O)O1.N` (stereo partly drawn): in data set [1], the half-life is 5.46 days. The EC50 came out at 19200 nM in data set [2], 170 nM in data set [4] and 440 nM in data set [6]. Also, the t1/2 in data set [3] was less than 0.01 h; in [9], 0.36 h. Besides, in data set [5], the selectivity ratio is more than 5. This molecule registered a Retention_time in data set [7] of 12.5 min. Besides, in data set [8], the CC50 was more than 100000 nM.

In general, half-life refers to the time in which the quantity being followed falls by half. Usually EC50 stands for the concentration that produces a half-maximal response. In general, CC50 refers to the concentration at which the toxic effect on the cells reaches its halfway point.
